Data published in PMC7558282, “The Anticancer Activity for the Bumetanide-Based Analogs via Targeting the Tumor-Associated Membrane-Bound Human Carbonic Anhydrase-IX Enzyme” (Pharmaceuticals, 2020).
pIC50: −log10 of the molar value.

Tests used:
[1] = tested on: HEK-293 cells; assay: MTT assay, non-tumorigenic HEK-293; type: cell-based; settings: HEK293, normal human embryonic kidney cells
Method: Such differential activity patterns could be explained as off-target activity mediated by the latter compounds being related to a specific cancer cell line.
Figure 3 Antiproliferative activity of compound 9c in tumorigenic A-498 cells and non-tumorigenic HEK-293 cells. The experiment was performed in triplicate and significance was represented as mean ± S.D. ** = p < 0.01; *** = p < 0.001 between indicated groups.
The colorimetric MTT Cell Proliferation® Assay Kit (Cat. №. 10009365; Cayman Chemical^TM, Ann Arbor, MI, USA) has been utilized to assess the cytotoxic impact of the investigated compounds on solid cancer cell lines. […] Color intensity within each well was measured spectrophotometrically using the ROBONIK-P2000® ELISA microplate reader (Bio-Tek^TM, Winooski, VT, USA) at 450 nm while subtracting the background absorbance of multi well plates at 690 nm. The experiment was conducted in triplicates and IC50 values were estimated through linear regression between the logarithm-transformed compound concentrations and corresponding % cell viability = (mean absorbance in test wells/mean absorbance in control wells) ∗ 100, having the response variable slope (four parameters) for all samples.

[2] = tested on: A-498 cells; assay: Annexin V/PI apoptotic assay in A-498; type: cell-based, human; settings: 6 µM, 48 h; control 1.3%
Method: The efficient antiproliferative activity of compound 9c on the kidney carcinoma A-498 cell line (Table 2) prompted a further investigation of its mechanistic growth inhibitory action. Thus, the impact of bumetanide analog 9c at 6 µM for 48 h on cell cycle distribution and induction of apoptosis in A-498 cells was next explored. […] Analysis of apoptosis was performed to determine the mode of cell death induced by 9c in A-498 cells. Compound 9c induced both early and late apoptosis in A-498 cells at 6 µM when compared to the untreated control cells (p < 0.01 and p < 0.001, respectively) (Figure 5A). […]
Figure 5 Compound 9c potently induces apoptosis in kidney carcinoma cell line A-498 cells (Annexin V/PI FACS). (A) Effect of compound 9c in A-498 cells analyzed by flow cytometry after double staining of the cells with Annexin-V-FITC and PI. […] (B) Quantitative analysis of apoptosis. […]
A-498 Cells were seeded at a density of 1 × 10^5 cells/well in 24-well plates and treated with compound 9c (6 µM) for 48 h. […] The DNA content of cells (10,000 cells/experimental group) was analyzed by flow cytometer at 488 nm using a FACSCalibur flow cytometer (BD Biosciences, San Jose, CA, USA) and all data were recorded and analyzed using the CellQuest Software (Becton-Dickinson Biosciences, San Jose, CA, USA). […]

With `CCCCNc1cc(-c2n[nH]c(=S)n2-c2ccc(Br)cc2)cc(S(N)(=O)=O)c1Oc1ccccc1` [Compound 9c] the pIC50 [1] was under 4.30 and the “Annexin V-staining positive cells (total apoptotic cells)” value [2] was 25.5%.
